Test results as given in patent publication US9522920B2, “Bromodomain inhibitors and uses thereof” (Constellation Pharmaceuticals, Inc., priority 2010, dated 2016).
Like-named read-outs stand apart in the source and are kept apart here.

Experiments:
IL-6 secretion = test: Cell-based IL-6 quantification assay (ELISA, Mesoscale) in LPS-stimulated THP-1 cells; conditions: THP-1 cells, 16 h, read-out: IL6
How it was run: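 THP-1 cells stimulated with LPS at 4 μg/mL final and exposed to compounds for 16 h. Supernatant IL-6 measured by Mesoscale ELISA and normalized to CellTiter-Glo cell content. Percent inhibition derived from that ratio.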

MYC mRNA [1] = test: cMyc RNA quantification assay (QuantiGene) in Raji cells; assay type: cell-based; conditions: 4 h
Method: (§1) MV4:11 (AML) or Raji (Burkitt's lymphoma) cells were seeded in a 96-well plate and incubated in the presence of various concentrations of compounds for 4 h. Relative mRNA levels were quantitated by using QuantiGene 2.0 assay (Affymetrix) according to the manufacturer's recommendation. Signals were detected by using an Envision plate reader (Perkin-Elmer). Biological duplicates were averaged and normalized to vehicle (DMSO) control to calculate percent MYC mRNA levels.

MYC mRNA [2] = test: cMyc RNA quantification assay (QuantiGene) in MV4:11 cells; assay type: cell-based; conditions: read-out: MYC-MV411
Method: as §1

BRD4(BD1) = target: T1, BRD4(BD1) (Homo sapiens, UniProt O60885); test: BRD4 AlphaLisa binding assay (Alphascreen)
T1 construct: His; made in house
How it was run: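 BRD4(BD1) (30 nM) incubated 20 min at room temperature with peptide (200 nM) and compound in 40 mM HEPES pH 7.0, 40 mM NaCl, 1 mM DTT, 0.01% BSA, 0.008% Brij-35, 1.2% DMSO.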

[3] = Homo sapiens, THP-1, 16 h, Table 14, LPS
[4] = Homo sapiens, Table 14, Raji cells
[5] = Homo sapiens, MV4-11, 4 h, Table 14, MV4:11 cells
[6] = Table 14, BRD4 AlphaLisa Binding Assay, read-out: Alpha screen
[7] = Homo sapiens, THP-1, 16 h, Table 7, LPS 4 μg/mL, normalised to CellTiter-Glo
[8] = Homo sapiens, Table 7, Raji (Burkitt's lymphoma) cells
[9] = Homo sapiens, MV4-11, 4 h, Table 7, MV4:11 (AML) cells
[10] = Table 6, BRD4(BD1) 30 nM, H4-tetraacetyl peptide 200 nM, read-out: BRD4 Alphascreen IC50
[11] = Table 7, LPS 4 μg/mL, normalised to CellTiter-Glo
[12] = Table 7, Raji (Burkitt's lymphoma) cells
[13] = Table 7, MV4:11 (AML) cells, 4 h

IC50 (IL-6 secretion; [3]) [µM]	IC50 (MYC mRNA [2]; [5]) [µM]	IC50 (BRD4(BD1); [6]) [µM]	Structure (SMILES)	other results
< 0.5	< 0.5	< 0.5	Cc1noc2c1-c1sc(C)c(C)c1C(c1ccc(C#N)cc1)=N[C@H]2[C@@H](C)C(N)=O [Compound 209, (2R)-2-((6S)-4-(4-cyanophenyl)-2,3,9-trimethyl-6H-isoxazolo[5,4-c]thieno[2,3-e]azepin-6-yl)propanamide]	IC50 (MYC mRNA [1]; [4]): 0.5 to 1 µM
–	–	–	CNc1nccc2c1C(c1ccc(Cl)cc1)=N[C@@H](CC(N)=O)c1onc(C)c1-2 [Compound 181, 2-((4S)-6-(4-chlorophenyl)-1-methyl-7-(methylamino)-4H-isoxazolo[5,4-c]pyrido[4,3-e]azepin-4-yl)acetamide]	IC50 (IL-6 secretion; [7]): < 0.5 µM; IC50 (MYC mRNA [1]; [8]): < 0.5 µM; IC50 (MYC mRNA [2]; [9]): < 0.5 µM; IC50 (BRD4(BD1); [10]): < 0.5 µM
–	–	–	Cc1noc2c1-c1ccnc(F)c1C(c1ccc(Cl)cc1)=N[C@H]2CC(N)=O [Compound 180, 2-((4S)-6-(4-Chlorophenyl)-7-fluoro-1-methyl-4H-isoxazolo[5,4-c]pyrido[4,3-e]azepin-4-yl)acetamide]	IC50 (IL-6 secretion; [7]): < 0.5 µM; IC50 (MYC mRNA [1]; [8]): 0.5 to 1 µM; IC50 (MYC mRNA [2]; [9]): 0.5 to 1 µM
< 0.5	< 0.5	< 0.5	Cc1noc2c1-c1ccc(F)cc1C(c1ccc(Cl)cc1)=N[C@H]2CC(N)=O [Compound 210]	IC50 (MYC mRNA [1]; [4]): 0.5 to 1 µM
–	–	–	Cc1cccc2c1C(c1ccc(C#N)cc1)=N[C@@H](CC(N)=O)c1onc(C)c1-2 [Compound 130]	IC50 (IL-6 secretion; [11]): < 0.5 µM; IC50 (MYC mRNA [1]; [12]): < 0.5 µM; IC50 (MYC mRNA [2]; [13]): < 0.5 µM; IC50 (BRD4(BD1); [10]): < 0.5 µM
–	–	–	Cc1noc2c1-c1cccc(Cl)c1C(c1ccc(Cl)cc1)=N[C@H]2CC(N)=O [Compound 139]	IC50 (IL-6 secretion; [11]): < 0.5 µM; IC50 (MYC mRNA [1]; [12]): < 0.5 µM; IC50 (MYC mRNA [2]; [13]): < 0.5 µM; IC50 (BRD4(BD1); [10]): < 0.5 µM
< 0.5	< 0.5	< 0.5	Cc1noc2c1-c1ccccc1C(c1ccc(C(C)(C)O)cc1)=N[C@H]2CC(N)=O [Compound 235]	–
> 1	> 1	> 1	Cc1noc2c1-c1ccccc1C(c1ccc(Cl)cc1)=NC2C#N (centres unmarked) [Compound 215, 6-(4-chlorophenyl)-1-methyl-4H-benzo[c]isoxazolo[4,5-e]azepine-4-carbonitrile]	–
< 0.5	< 0.5	< 0.5	CNc1ccc2c(n1)C(c1ccc(Cl)cc1)=NCc1onc(C)c1-2 [Compound 241, 6-(4-Chlorophenyl)-N,1-dimethyl-4H-isoxazolo[5,4-c]pyrido[3,2-e]azepin-8-amine]	–
> 1	> 1	> 1	Cc1noc2c1-c1nc(N)ccc1C(c1ccc(Cl)cc1)=NC2 [Compound 228, 5-(4-Chlorophenyl)-10-methyl-7H-isoxazolo[5,4-c]pyrido[2,3-e]azepin-2-amine]	–
< 0.5	< 0.5	< 0.5	Cc1noc2c1-c1sc(C)c(C)c1C(c1ccc(C(C)(C)O)cc1)=NC2CC(N)=O (centres unmarked) [Compound 236]	–
< 0.5	< 0.5	< 0.5	CCOc1ccc2c(c1)C(c1ccc(Cl)cc1)=N[C@@H](CC(N)=O)c1onc(C)c1-2 [Compound 248]	–
> 1	> 1	> 1	CC(=O)NC(C[C@@H]1N=C(c2ccc(Cl)cc2)c2ccccc2-c2c(C)noc21)C(F)(F)F (mixture of isomers) [Compound 244, Mixture of N-((2S)-3-((4S)-6-(4-chlorophenyl)-1-methyl-4H-benzo[c]isoxazolo[4,5-e]azepin-4-yl)-1,1,1-trifluoropropan-2-yl)acetamide and N-((2R)-3-((4S)-6-(4-chlorophenyl)-1-methyl-4H-benzo[c]isoxazolo[4,5-e]azepin-4-yl)-1,1,1-trifluoropropan-2-yl)acetamide]	–
0.5 to 1	> 1	< 0.5	Cc1noc2c1-c1ccc(N)nc1C(c1ccc(Cl)cc1)=NC2 [Compound 257, 6-(4-Chlorophenyl)-1-methyl-4H-isoxazolo[5,4-c]pyrido[3,2-e]azepin-8-amine]	–
0.5 to 1	0.5 to 1	< 0.5	Cc1noc2c1-c1ccccc1C(c1ccc(C(C)(C)N)cc1)=N[C@H]2CC(N)=O [Compound 233]	–
< 0.5	< 0.5	< 0.5	Cc1noc2c1-c1ccc(O)cc1C(c1ccc(Cl)cc1)=N[C@H]2CC(N)=O [Compound 239, 2-((4S)-6-(4-chlorophenyl)-8-hydroxy-1-methyl-4H-benzo[c]isoxazolo[4,5-e]azepin-4-yl)acetamide]	–
< 0.5	< 0.5	< 0.5	Cc1noc2c1-c1ccc(-c3ccc(C(=O)O)cc3)cc1C(c1ccc(F)cc1)=N[C@H]2C [Compound 237]	–
> 1	> 1	> 1	Cc1noc2c1-c1ccccc1C(c1ccc(Cl)cc1)=NC2C(N)=O (centres unmarked) [Compound 218, 6-(4-chlorophenyl)-1-methyl-4H-benzo[c]isoxazolo[4,5-e]azepine-4-carboxamide]	–
< 0.5	< 0.5	< 0.5	CCOC(=O)NC1N=C(c2ccc(Cl)cc2)c2ccccc2-c2c(C)noc21 (centres unmarked) [Compound 225, ethyl (6-(4-chlorophenyl)-1-methyl-4H-benzo[c]isoxazolo[4,5-e]azepin-4-yl)carbamate]	–
< 0.5	0.5 to 1	< 0.5	Cc1noc2c1-c1cnc(N3CCCC3)cc1C(c1ccc(Cl)cc1)=NC2 [Compound 255, 6-(4-Chlorophenyl)-1-methyl-8-(pyrrolidin-1-yl)-4H-isoxazolo[5,4-c]pyrido[3,4-e]azepine]	–
> 1	> 1	> 1	Cc1noc2c1-c1ccccc1C(c1ccc(Cl)cc1)=N[C@H]2CC(N)C(F)(F)F (mixture of isomers) [Compound 232, Mixture of (2S)-3-((4S)-6-(4-chlorophenyl)-1-methyl-4H-benzo[c]isoxazolo[4,5-e]azepin-4-yl)-1,1,1-trifluoropropan-2-amine and (2R)-3-((4S)-6-(4-chlorophenyl)-1-methyl-4H-benzo[c]isoxazolo[4,5-e]azepin-4-yl)-1,1,1-trifluoropropan-2-amine]	–
> 1	> 1	> 1	Cc1noc2c1-c1cnc(Cl)cc1C(c1ccc(Cl)cc1)=NC2 [Compound 256, 8-Chloro-6-(4-chlorophenyl)-1-methyl-4H-isoxazolo[5,4-c]pyrido[3,4-e]azepine]	–
< 0.5	< 0.5	< 0.5	Cc1noc2c1-c1ccc(-c3ccc(N)nc3)cc1C(c1ccc(F)cc1)=N[C@H]2CC(N)=O [Compound 216]	–
–	–	0.5 to 1	CCOC(=O)NC1N=C(c2ccc(Cl)cc2)c2ccccc2-c2c(C)noc21 (single isomer, unassigned) [Compound 254, Ethyl (6-(4-chlorophenyl)-1-methyl-4H-benzo[c]isoxazolo[4,5-e]azepin-4-yl)carbamate]	IC50 (IL-6 secretion; Table 14, LPS): > 1 µM; IC50 (MYC mRNA [2]; Table 14, MV4:11 cells, 4 h): > 1 µM
–	–	< 0.5	Cc1noc2c1-c1ccc(OC(C)C)cc1C(c1ccc(Cl)cc1)=N[C@H]2CC(N)=O [Compound 249]	IC50 (IL-6 secretion; Table 14, LPS): < 0.5 µM; IC50 (MYC mRNA [2]; Table 14, MV4:11 cells, 4 h): < 0.5 µM
> 1	0.5 to 1	> 1	COc1ccc2c(n1)-c1c(C)noc1CN=C2c1ccc(Cl)cc1 [Compound 219, 5-(4-Chlorophenyl)-2-methoxy-10-methyl-7H-isoxazolo[5,4-c]pyrido[2,3-e]azepine]	–
